Reference: patent US8158609B1, “Use of cyclodextrins as an active ingredient for treating dry AMD and solubilizing drusen” (Novartis AG, priority 2006, dated 2012)
Entries after “also recorded” stand apart in the source; their conditions may differ.

How the values were obtained:
drusen = assay: in vitro drusen removal assay, frozen drusen sections treated with cyclodextrin, H&E staining; parameters: species or system human
Protocol: (§1) Unfixed, donor eye with AMD drusen was immersed in 30% sucrose in PBS buffer at pH 7.4 for 24 hours at 4° C. for cryoprotection, then embedded in OCT. For cryostat sections, the eye was serially sectioned at 8 μm thickness and stored at −70° C. Drusen were identified under the microscope. Unfixed fresh frozen mouse brown fat tissue was sectioned at 10 μm thickness as the positive control.
(§2) A viable in vitro assay to evaluate compounds with a potential to remove drusen in the eye was explored. Sections with drusen were treated with cyclodextrin for 30 min, 1 hr, 2 hrs, 4 hrs, 15 hrs at room temperature. In a subsequent experiment, sections with drusen were immersed in 40 ml of 25% Hydroxypropyl β-cyclodextrin at 37° C. for 24 hrs.
(§3) Unfixed frozen human eye drusens were considered closest to the in vivo state of drusen. Mouse brown fat was used for positive control.

[1] = test system: lipid component of drusen; assay: lipid histochemistry of drusen in eyes with AMD, Oil Red O staining; parameters: species or system human; conditions: 40 ml of 25% solution, 37° C., 24 hrs
Protocol: as §1, §2, §3

mouse brown fat tissue = assay: lipid histochemistry of fresh fat tissue, Oil Red O staining (positive control tissue); conditions: for dissolving of mouse fat tissue: 37° C., 24 hrs, compared with untreated fat tissue
Protocol: as §1
Hydroxypropyl β-cyclodextrin selected compound was titered to the best concentration by mouse fat tissue at 37° C. for 24 hrs (Table.2).
as §3

| Substance | size of a drusen, H&E 40× (FIG. 1C) (drusen; 25% solution, 2 hours) | change / dissolving of drusen by H&E staining (drusen; 40 ml, 25% (different concentration), 37° C., 24 hrs) | ORO staining of lipid-containing drusen / dissolving the lipid component of drusen [1] | dissolving of fresh mouse fat tissue (mouse brown fat tissue; 25% solution) | dissolving of mouse fat tissue (mouse brown fat tissue; 25%-45% solution) | dissolving of mouse fat tissue (mouse brown fat tissue; 30% solution) |
| --- | --- | --- | --- | --- | --- | --- |
| Hydroxypropyl β-cyclodextrin | reduced size | no change; also recorded: could not completely dissolve drusen | stained negatively; also recorded: has efficacy in dissolving the lipid component of drusen | has efficacy in dissolving fresh mouse fat tissue | has effect on dissolving the partial fat tissue; also recorded: partial fat tissues were dissolved |  |
| Sulfonyletherbutyl β-cyclodextrin |  |  |  |  |  | partial fat tissues were dissolved |
